Here are results for 35 compounds from ChEMBL document CHEMBL5505950, “An updated review of chemical compounds with anti-Toxoplasma gondii activity” (Eur J Med Chem, 2023).

A word on the IC50: it is the concentration that gives 50% inhibition.

Some results are limits rather than exact numbers.

Tested on in one assay: not listed separately
Description: Inhibition of recombinant Toxoplasma gondii Farnesyl pyrophosphate synthase.
Conditions: not given
Take `CCCCCCCCCCSCC(P(=O)(O)O)P(=O)(O)O`: the IC50 is 21 nM.

Consider `CCCCCCCSCC(P(=O)(O)O)P(=O)(O)O`, for which the IC50 amounted to 69 nM.

Regarding `CCCCCCCCCCS(=O)(=O)CC(P(=O)(O)O)P(=O)(O)O`, the IC50 is 270 nM.

Regarding `CCCCCCC[S+]([O-])CC(P(=O)(O)O)P(=O)(O)O` (stereo unspecified), the IC50 came to 9 nM.

A further assay deals with Toxoplasma gondii. Kind of assay: Antiparasitic activity against Toxoplasma gondii tachyzoites infected in hTRET cells assessed as parasitic growth inhibition. The assay is classed as functional, organism-based.
Conditions: not given
In the case of `O=P(O)(O)C(CSCCOc1cccc(Oc2ccccc2)c1)P(=O)(O)O`, the EC50 is 670 nM.

For `CCCCCCCCCCSCC(P(=O)(O)O)P(=O)(O)O`, the EC50 amounted to 1800 nM.

For the compound `CCCCCCCSCC(P(=O)(O)O)P(=O)(O)O`, the EC50 was 970 nM.

On to `CCCCCCCCCCS(=O)(=O)CC(P(=O)(O)O)P(=O)(O)O`, for which the EC50 was determined as 110 nM.

With `CCCCCCCNCC(P(=O)(O)O)P(=O)(O)O`, the EC50 is > 10000 nM.

Take `CCCCCCC[S+]([O-])CC(P(=O)(O)O)P(=O)(O)O` (stereo unspecified): the EC50 was 5000 nM.

The next assay deals with Toxoplasma gondii. Description: Antiparasitic activity against Toxoplasma gondii assessed as parasitic growth inhibition. The assay is classed as functional, organism-based.
Conditions: not given
For `N#C[Se]CCOc1ccc(Oc2ccccc2)cc1`, the EC50 was 3700 nM.

As for `N#C[Se]CCOc1cccc(Oc2ccccc2)c1`, the EC50 worked out at 2870 nM.

Regarding `N#CSCCOc1ccc(Oc2ccccc2)cc1`, the EC50 was determined as 4800 nM.

The subject of another assay is Toxoplasma gondii. Description: Antiparasitic activity against Toxoplasma gondii tachyzoites infected in hTRET cells assessed as reduction in parasitic growth. To be noted: read-out: ED50 (the source's name). The assay is classed as functional.
With `C[C@@H](COC(=O)N1CCC(n2c(=O)n(C)c3ccccc32)CC1)N(Cc1ccccc1)Cc1ccccc1`, the EC50 turned out to be 200 nM.

For `COC(=O)/C=C1/S/C(=N/N=C\c2ccccc2O)NC1=O`, the EC50 turned out to be 660 nM.

Take `COC(=O)/C=C1/S/C(=N/N=C(C)\C=N\O)NC1=O`: the EC50 came to 490 nM.

Consider `O=C(OCCOCc1ccccc1)N1CCC(n2c(=O)[nH]c3ccccc32)CC1`, for which the EC50 is 500 nM.

With `C[C@@H](COC(=O)NCCCn1c(=O)n(C)c2ccccc21)N(Cc1ccccc1)Cc1ccccc1`, the EC50 stood at 380 nM.

Turning to `COC(=O)/C=C1/S/C(=N/N=C(/C)c2ccccn2)NC1=O`, the EC50 stood at 200 nM.

With `CCCCCCCCCC(O)(P(=O)(O)O)P(=O)(O)O`, the EC50 was 850 nM.

Tested on in another assay: not listed separately
Description: Inhibition of Toxoplasma gondii Farnesyl pyrophosphate synthase.
Conditions: not given
`CCCCCCCCCC(O)(P(=O)(O)O)P(=O)(O)O` gave an IC50 of 130 nM.

Tested on in the next assay: not listed separately
Kind of assay: Inhibition of Toxoplasma gondii Heptaprenyl Diphosphate Synthase Coq1 expressed in Escherichia coli BL21.
Conditions: not given
Take `CCCCCCCCCC(O)(P(=O)(O)O)P(=O)(O)O`: half-maximal inhibition (IC50) was put at 2130 nM.

In another assay the target is T1, Bifunctional dihydrofolate reductase-thymidylate synthase (Toxoplasma gondii, UniProt Q07422).
T1 sequence (Q07422 whole entry): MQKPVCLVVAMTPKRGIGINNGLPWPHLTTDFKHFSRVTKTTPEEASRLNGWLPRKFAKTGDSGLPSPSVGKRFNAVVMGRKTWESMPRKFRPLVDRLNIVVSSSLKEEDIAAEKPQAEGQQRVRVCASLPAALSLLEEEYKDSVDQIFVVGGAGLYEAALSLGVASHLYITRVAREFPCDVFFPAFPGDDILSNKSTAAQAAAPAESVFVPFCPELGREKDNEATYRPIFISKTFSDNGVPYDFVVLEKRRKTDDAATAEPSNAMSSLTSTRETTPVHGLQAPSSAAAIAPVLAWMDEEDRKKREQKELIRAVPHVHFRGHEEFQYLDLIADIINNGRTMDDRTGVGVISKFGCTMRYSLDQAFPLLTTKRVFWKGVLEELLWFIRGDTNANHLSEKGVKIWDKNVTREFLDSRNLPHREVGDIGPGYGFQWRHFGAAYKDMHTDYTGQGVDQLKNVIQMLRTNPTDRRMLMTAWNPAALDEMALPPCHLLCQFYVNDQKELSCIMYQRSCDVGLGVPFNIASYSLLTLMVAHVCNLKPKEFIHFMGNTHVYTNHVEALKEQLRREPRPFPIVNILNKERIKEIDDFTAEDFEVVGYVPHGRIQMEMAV
Description: Inhibition of Toxoplasma gondii Dihydrofolate reductase.
Conditions: not given
Compound `CCc1sc2nc(N)[nH]c(=O)c2c1Sc1ccc2ccccc2c1` displayed an IC50 of 8 nM.

The compound `CCc1sc2nc(N)[nH]c(=O)c2c1Sc1ccc(Br)cc1` gave an IC50 of 10 nM.

On to `COc1ccc(CCCCCCC(=O)O)cc1Cc1cnc2nc(N)nc(N)c2c1OC`, for which the IC50 came to 3 nM.

`CCc1sc2nc(N)[nH]c(=O)c2c1Sc1ccc(C(=O)N[C@@H](CCC(=O)O)C(=O)O)cc1` showed an IC50 of 2 nM.

Compound `COc1ccc(C#Cc2cccc(C(=O)O)c2)cc1Cc1cnc2nc(N)nc(N)c2c1OC` came in with an IC50 of 5 nM.

`CCc1sc2nc(N)[nH]c(=O)c2c1Sc1ccc([N+](=O)[O-])cc1` showed an IC50 of 8 nM.

A further assay concerns Toxoplasma gondii. Kind of assay: Antiparasitic activity against Toxoplasma gondii EGS infected in human HFF cells. To be noted: read-out: ED50 (the source's name). It is filed as functional.
Turning to `O=C(CCCCCCC(=O)Nc1ccccc1)NO` [VORINOSTAT], the EC50 is 70 nM.

Another assay concerns Toxoplasma gondii. Description: Antiparasitic activity against Toxoplasma gondii RH tachyzoites infected in human HFF cells assessed as parasitic growth inhibition. It is filed as functional. To be noted: time 72 hrs, read-out: ED50 (the source's name).
Take `OCCOCCN1CCN(C(c2ccccc2)c2ccc(Cl)cc2)CC1` (stereo unspecified) [HYDROXYZINE]: the EC50 is 2500 nM.

For the compound `CNc1[nH]c(Nc2ccc(C(=O)N3CCOCC3)cc2OC)nc2ncc(Cl)c1-2`, the EC50 is 5880 nM.

In the case of `CC[C@]1(C)NC(=O)[C@H](CCCCCC(=O)[C@@H](C)OC(C)=O)NC(=O)[C@H]2C[C@H](C)CN2C(=O)[C@H](Cc2ccccc2)NC1=O`, the EC50 stood at 1 nM.

For `CO/N=C(\C(=O)OC)c1ccccc1CO/N=C(\C)c1cccc(C(F)(F)F)c1`, the EC50 amounted to 500 nM.

On to `CCOc1ccc2cc(-c3nn(C(C)(C)C)c(N)c3C(N)=O)cnc2c1`, for which the EC50 was found to be 2760 nM.

As to `Cc1c(NC(=O)c2ccc(C(C)(C)C)cc2)cccc1-c1cn(C)c(=O)c(Nc2ccc(C(=O)N3CCOCC3)cc2)n1`, the EC50 was 14600 nM.

On to `CO/C=C(\C(=O)OC)c1ccccc1Oc1cc(Oc2ccccc2C#N)ncn1` [Azoxystrobin], for which the EC50 was 7050 nM.

On to `CC(C)(C)C1CCC(CC2C(=O)C(=O)c3ccccc3C2O)CC1` (stereo unspecified), for which the EC50 worked out at 1180 nM.

As for `CCC(=O)CCCCC[C@@H]1NC(=O)[C@H]2C[C@H](C)CN2C(=O)[C@H](Cc2ccccc2)NC(=O)[C@](C)(CC)NC1=O`, the EC50 was determined as 11 nM.

`O=C1C(O)=C([C@H]2CC[C@H](c3ccc(Cl)cc3)CC2)C(=O)c2ccccc21` [ATOVAQUONE]: the EC50 was found to be 180 nM.

Regarding `O=C(NC1CC1)c1ccc(N2CCC(Cc3ccccc3)CC2)nc1`, the EC50 turned out to be 2810 nM.

Regarding `Cc1coc2c1C(=O)C(=O)c1c-2ccc2c1CCCC2(C)C` [TANSHINONE IIA], the EC50 amounted to 1000 nM.
